“Also recorded” adds a separate entry of the source. Starred links: 1 amine or outer side, 2 acyl side, 3 side chain; linkers in the order of their positions; H or OH if unused. Positions of bridges follow the written chain, without caps; N, C: chain ends. Non-standard residues stand in square brackets, D forms with d. Residues, ends and D or L forms follow the SMILES beside them. Chains are numbered I, II in the order given. Actinocin(9to1) = Cc1c2oc3c(C)ccc(C(=O)[*:1])c3nc-2c(C(=O)[*:2])c(N)c1=O; NMeV = CN[C@H](C(=O)O)C(C)C; Sar = CNCC(=O)O
Key:
[1] = tested on: NIH 3T3 FGF-1-β-gal:p65 Syn-1 co-transfectants; assay: Effects of pharmacologic inhibitors on heat shock induced release of p40; type: cell-based, murine; conditions: heat shock 42° C. for 100 min
Method: (§1) Stable NIH 3T3 FGF-1:β-gal transfectants were co-transfected with either p65 Syn-1, p65(Δ120-214) or p40 and maintained in Dulbecco's modified Eagle's medium (DMEM, GIBCO-BRL, Grand Island, N.Y.) containing 10% (v/v) bovine calf serum (BCS, Hyclone, Logan, Utah), 1× antibiotic-antimycotic (GIBCO-BRL) and 200 μg/ml G418 (GIBCO-BRL) and 250 μg/ml hygromycin (Boehringer Mannheim, Indianapolis, Ind.) on sterile tissue culture dishes coated with 10 μg/cm^2 human fibronectin prepared from human plasma by affinity adsorption to a column of immobilized type I collagen by methods well known in the art. Confluent monolayers of co-transfectants were rinsed with DMEM containing 4 U/ml heparin (Upjohn, Kalamazoo, Mich.) and subjected to heat shock (42° C. for 100 min) in DMEM containing 4 U/ml heparin and 0.5% BCS as described (Jackson et al., Proc. Nat. Acad. Sci. USA 89:10691, 1992). For each Syn-1 construct, three independent co-transfectant clones were tested.
Following heat shock, conditioned media were collected, filtered using 0.2 μm filters (Millipore, Bedfore, Mass. ) according to the supplier's recommendations, and activated with 0.1% (w/v) dithiothreitol (DTT, Sigma, St. Louis, Mo.) for 2 h at 37° C. (Jackson et al., J. Biol. Chem. 270:33, 1995). Conditioned media were then passed over a column of heparin-Sepharose™ CL-6B (Pharmacia Biotech, Piscataway, N.J.) equilibrated and eluted with 50 mM Tris pH 7.4 containing 10 mM EDTA (TE buffer, TEB). Following TEB washing, the column was eluted with 1.5 M NaCl in TEB and the eluate collected and concentrated using a Centricon™ 10 concentrator (Amicon, Inc., Beverly, Mass.) according to the manufacturer's instructions. Aliquots of the concentrated eluates were analyzed by 10% sodium dodecylsulfate polyacrylamide gel electrophoresis (SDS-PAGE) as described (Jackson et al., J. Biol Chem. 270:33, 1995). Electrophoretically separated samples were further characterized by immunoblot analysis as described (Jackson et al., Proc. Nat. Acad. Sci. USA 89:10691, 1992). […]

[2] = tested on: FGF-1-NIH 3T3 transfectants; conditions: agent in the media of cultured cells exposed to heat shock; cited from earlier work
[3] = tested on: NIH 3T3 FGF-1-β-gal:p65 Syn-1 co-transfectants; assay: Heat shock induced release of FGF-1-β-gal and Syn-1 from co-transfectants, immunoblot of heparin binding fraction of conditioned medium; type: cell-based, murine; conditions: heat shock 41.5° C. for 90 min; concentration dependent; FIG. 17
Method: as §1, with “Confluent monolayers of co-transfectants were rinsed with DMEM containing 4 U/ml heparin (Upjohn, Kalamazoo, Mich.) and subjected to heat shock (42° C. for 100 min) in DMEM containing 4 U/ml heparin and 0.5% BCS as described (Jackson et al., Proc.” left out, “For each Syn-1 construct, three independent co-transfectant clones were tested.” left out
Following heat shock, conditioned media were collected, filtered using 0.2 μm filters (Millipore, Bedfore, Mass. ) according to the supplier's recommendations, and activated with 0.1% (w/v) dithiothreitol (DTT, Sigma, St. Louis, Mo.) for 2 h at 37° C. […] Aliquots of the concentrated eluates were analyzed by 10% sodium dodecylsulfate polyacrylamide gel electrophoresis (SDS-PAGE) as described (Jackson et al., J. Biol Chem. 270:33, 1995). […]
In this Example, the effects of members of the amlexanox family of pharmacologic agents known to bind to S100A13 (Oyama et al., Biochem. Biophys. Res. Commun. 240:341, 1997) were evaluated in cell based assay systems for export of FGF1:Syn-1 complexes in vitro. […]

[4] = tested on: NIH 3T3 FGF-1 transfectants; assay: Heat shock induced FGF-1 and p40 Syn-1 release by FGF-1 transfectants, immunoblot of conditioned media; type: cell-based, murine
Method: Chemical derivatives of amlexanox were tested for their effects on FGF-1 and p40 Syn-1 release by NIH 3T3 FGF-1 transfectants in response to heat shock. Media were conditioned by three 150 mm dishes of NIH3T3 cells stably transfected with FGF-1α (residues 21-154) after exposure to 41.5° C. for 90 min with or without amlexanox or the indicated amlexanox derivative. The media were collected and resolved by 12.5% acrylamide SDS-PAGE under reducing conditions followed by immunoblot analysis for FGF-1 as described herein.
(FIG. 19: Lane 1: media derived from NIH3T3 cell FGF-1 transfectants following heat shock in the absence of any drug; Lanes 2 through 4: media derived from NIH3T3 cell FGF-1 transfectants following heat shock in the presence of 1×10^−6 M, 1×10^−5 M, 1×10^−4 M, A673 (amlexanox) respectively; Lanes 5 through 7: media derived from NIH3T3 cell FGF-1 transfectants following heat shock in the presence of 1×10^−6 M, 1×10^−5 M, 1×10^−4 M AA617 respectively; Lanes 8 through 10: media derived from NIH3T3 cell FGF-1 transfectants following heat shock in the presence of 1×10^−6 M, 1×10^−5 M, 1×10^−4 M AA648 respectively; Lanes 11 through 13: media derived from NIH3T3 cell FGF-1 transfectants following heat shock in the presence of 1×10^−6 M, 1×10^−5 M, 1×10^−4 M, AA777 respectively; Lane 14: media derived from NIH3T3 cell FGF-1 transfectants maintained at 37° C. for 90 min; Lane 15, 50 ng of recombinant human FGF-1α. The structures of amlexanox (AA673) and its derivatives are also shown.

[5] = tested on: 3T3 cell line transfected with a chimeric FGF-1 construct having a functional signal sequence; assay: Secretion by 3T3 cell line transfected with chimeric FGF-1 construct having a functional signal sequence (classical ER-Golgi pathway); type: cell-based; conditions: not shown
Text: In a concentration dependent fashion, amlexanox inhibited the release of both FGF-1-β-gal and Syn-1 from NIH 3T3 FGF-1-β-gal:p65 Syn-1 co-transfectants in response to heat shock (FIG. 17). […] A 3T3 cell line transfected with a chimeric FGF-1 construct having a functional signal sequence for secretion via the classical ER-Golgi protein secretory pathway (Forough et al., J. Biol. Chem. 268:2960, 1993) was unaffected by amlexanox by several phenotypic criteria, including secretory activity (not shown).

[6] = tested on: NIH-3T3 FGF-1-β-gal:p40 Syn-1 co-transfectants; assay: p40 Syn-1 release from p40 Syn-1 co-transfectants at 37° C. or after heat shock, Syn-1 immunoblot; type: cell-based, murine; conditions: FIG. 18
Method: Amlexanox was also tested for an effect on the heat shock response of NIH-3T3 FGF-1-β-gal:p40 Syn-1 co-transfectants described above in Example 11. Media were conditioned by two 150 mm dishes of NIH3T3 cells stably co-transfected with FGF-1:β-Gal and rat p40 Syn-1 after exposure to temperature stress (41.5° C., 90 min) with or without treatment. The media were collected and resolved by 10% acrylamide SDS-PAGE under reducing conditions followed by immunoblot analysis for Syn-1 as described herein and in the cited references.
(FIG. 18: Lane 1: media derived from NIH3T3 cell FGF-1:β-Gal and p40 Syn1 co-transfectants maintained at 37° C. for 90 min. Lane 2: media derived from NIH3T3 cell FGF-1:β-gal and p40 Syn-1 co-transfectants following heat shock. Lanes 3 and 4: media derived from NIH3T3 cell FGF-1:β-gal and p40 Syn-1 co-transfectants maintained at 37° C. in the presence of 5×10^−5M, and […] AA673 (amlexanox) respectively. Lane 5: media derived from NIH3T3 cell FGF-1:β-gal and p40 Syn-1 co-transfectants following heat shock in the presence of 3×10^−4M, AA673. Lane 6: 50 ng of recombinant rat p40 Syn-1.)

[7] = biological target: the molecule itself; assay: Cu2+ oxidation, non-reduced SDS-PAGE
Method: Purified FGF-1 and p40 Syn-1 were incubated with, and without, Cu²⁺ for 10 min. and resolved on two non-reduced SDS-PAGE gels (A and B), as described by Maciag et al., Recent Prog. Horm. Res. 49:105-123 (1993). The systems were identical except gel 5B was immunoblotted with FGF-1 antibody, whereas gel 5A was not.
However, when FGF-1 and p40 Syn-1 were added together, non-reduced SDS-PAGE was able to resolve a unique component with an apparent Mᵣ˜66,000 (FIG. 6A). To determine whether this band contained FGF-1, this experiment was repeated and analyzed by FGF-1 immunoblot analysis.

[8] = 41.5° C. for 90 min, 1×10^−6 M, 1×10^−5 M, 1×10^−4 M, FIG. 19

## Cc1c2oc3c(C)ccc(C(=O)N[C@@H]4C(=O)N[C@H](C(C)C)C(=O)N5CCC[C@H]5C(=O)N(C)CC(=O)N(C)[C@@H](C(C)C)C(=O)O[C@@H]4C)c3nc-2c(C(=O)N[C@@H]2C(=O)N[C@H](C(C)C)C(=O)N3CCC[C@H]3C(=O)N(C)CC(=O)N(C)[C@@H](C(C)C)C(=O)O[C@@H]2C)c(N)c1=O [actinomycin D] (I: T[dV]P[Sar][NMeV] / II: T[dV]P[Sar][NMeV]; ester I:1-I:C, II:1-II:C; linker I:N-II:N via Actinocin(9to1))
[1]
  heat shock induced release of p40: inhibited
[2]
  release of latent FGF-1: inhibited

## CC(C)c1ccc2oc3nc(N)c(C(=O)O)cc3c(=O)c2c1 [amlexanox]
[3]
  release of FGF-1-β-gal in response to heat shock: inhibited; also recorded: inhibition
  release of Syn-1 in response to heat shock: inhibited; also recorded: inhibition
[4]; [8]
  FGF-1 release in response to temperature stress: inhibition
  p40 Syn-1 release in response to temperature stress: inhibition
[4]; NIH 3T3 cell line stably transfected with FGF-1 instead of FGF-1-β-gal, not shown
  FGF-1 release in response to heat shock: inhibited FGF-1 release
[5]
  effect on phenotypic criteria, including secretory activity: unaffected
[6]; 37° C., 5×10^−5M and 3×10^−1M AA673
  constitutive release of p40 Syn-1: no effect
[6]; heat shock 41.5° C., 90 min, 3×10^−4M AA673
  enhanced p40 export in response to heat shock: did inhibit

## C[C@H]1CCC/C=C/[C@@H]2C[C@H](O)C[C@H]2[C@H](O)/C=C/C(=O)O1 [brefeldin A]
[1]
  heat shock induced release of p40: unaffected

## C[C@@H]1C[C@@H]([C@H](O)CC2CC(=O)NC(=O)C2)C(=O)[C@@H](C)C1 [cycloheximide]
[1]
  heat shock induced release of p40: inhibited
[2]
  release of latent FGF-1: inhibited

B1: recombinant human p40 Syn-1 (other, UniProt P21579 104-422, looked up)
chain: MKDVKDLGKTMKDQALKDDDAETGLTDGEEKEEPKEEEKLGKLQYSLDYDFQNNQLLVGIIQAAELPALDMGGTSDPYVKVFLLPDKKKKFETKVHRKTLNPVFNEQFTFKVPYSELGGKTLVMAVYDFDRFSKHDIIGEFKVPMNTVDFGHVTEEWRDLQSAEKEEQEKLGDICFSLRYVPTAGKLTVVILEAKNLKKMDVGGLSDPYVKIHLMQNGKRLKKKKTTIKKNTLNPYYNESFSFEVPFEQIQKVQVVVTVLDYDKIGKNDAIGKVFVGYNSTGAELRHWSDMLANPRRPIAQWHTLQVEEEVDAMLAVKK
notes: domain: p40 form of Syn-1; also called p45; p40/45
[7]
  binding result: no binding
